Patent US11078166B2, “Triazole conjugated ureas, thioureas, carbamates, and reversed carbamates for PSMA-targeted imaging agents and uses thereof” (THE JOHNS HOPKINS UNIVERSITY, priority 2015, dated 2021)
Entries after “also recorded” stand apart in the source; their conditions may differ. Like-named read-outs stand apart in the source and are kept apart here. Each block holds one molecule with its values, some of them ahead of it.

Assays:
[1] = biological target: T1, PSMA (Homo sapiens, UniProt Q04609); conditions: from Chen et al. 2008 and 2011; read-out: Ki value, PSMA (for comparison); cited from earlier work
T1 construct: endogenous in cells; host or cells: LNCaP cell lysate

[2] = biological target: T1, PSMA; assay: NAALADase assay (fluorescence-based Amplex Red glutamic acid assay), PSMA inhibition; type: biochemical; conditions: for Ki: LNCaP cell lysates, 4 μM NAAG, Cheng-Prusoff conversion
Method: NAALADase Assay (Kozikowski et al., J. Med. Chem. 2004). The binding affinities of compounds YC-88, YC-71 and YC-XY-01 were tested with an established protocol. Briefly, cell lysates of Lymph Node Carcinoma of the Prostate (LNCaP) cell extracts (25 μL) were incubated with the inhibitor (12.5 μL) in the presence of 4 μM N-acetylaspartylglutamate (NAAG) (12.5 μL) at 37° C. for 120 min. The amount of the glutamate released by NAAG hydrolysis was measured by incubating with a working solution (50 μL) of the Amplex Red Glutamic Acid Kit (Life Technologies, Grand Island, N.Y.) at 37° C. for 60 min. Fluorescence was measured with a VICTOR^3V multilabel plate reader (Perkin Elmer Inc., Waltham, Mass.) with excitation at 490 nm and emission at 642 nm. Inhibition curves were determined using semi-log plots and IC50 values were determined at the concentration at which enzyme activity was inhibited by 50%. Assays were performed in triplicate with the entire inhibition study being repeated at least once to confirm affinity and mode of inhibition. Enzyme inhibitory constants (Ki values) were generated using the Cheng-Prusoff conversion. […]. Data analysis was performed using GraphPad Prism version 4.00 for Windows (GraphPad Software, San Diego, Calif.).
PSMA Inhibition Assay. The PSMA binding affinity of YC-88 were determined using a modification of the Amplex Red glutamic acid assay (Chen et al., Biochem. Biophys. Res. Commun. 2009).

[3] = Lipophilicity, octanol-water partition coefficient by shake-flask method; type: physicochemical; conditions: pH 7.4
Method: Lipophilicity Determination. Octanol-water partition coefficients [log P (pH 7.4) values] were determined according to a literature procedure (Banerjee et al., J. Med. Chem. 2010). […] After vigorously shaking the mixture, it was centrifuged at 3,000 rpm for 5 min. Aliquots were removed from the two phases, and the radioactivity was measured in a 1282 Compugamma CS γ-counter, (LKB, Wallac, Turku, Finland).
Lipophilicity. Octanol-water partition coefficient (log P) values were measured by the shake-flask method using 1-octanol and PBS (pH 7.4). The log P of [^18F]YC-88 at pH 7.4 was −3.91.

[4] = Radiation dosimetry: kidney biological clearance half-life and AUC from % ID/g data; type: in vivo, NOD-SCID mice; conditions: for AUC in kidneys / Biological half-life in kidneys: single exponential fit of kidney % ID/g
Source text: Radiation Dosimetry. […] The simulation analysis and modeling software package SAAM II (The Epsilon Group, Charlottesville, Va.) was used to perform the fits.

T1 sequence (Q04609 whole entry): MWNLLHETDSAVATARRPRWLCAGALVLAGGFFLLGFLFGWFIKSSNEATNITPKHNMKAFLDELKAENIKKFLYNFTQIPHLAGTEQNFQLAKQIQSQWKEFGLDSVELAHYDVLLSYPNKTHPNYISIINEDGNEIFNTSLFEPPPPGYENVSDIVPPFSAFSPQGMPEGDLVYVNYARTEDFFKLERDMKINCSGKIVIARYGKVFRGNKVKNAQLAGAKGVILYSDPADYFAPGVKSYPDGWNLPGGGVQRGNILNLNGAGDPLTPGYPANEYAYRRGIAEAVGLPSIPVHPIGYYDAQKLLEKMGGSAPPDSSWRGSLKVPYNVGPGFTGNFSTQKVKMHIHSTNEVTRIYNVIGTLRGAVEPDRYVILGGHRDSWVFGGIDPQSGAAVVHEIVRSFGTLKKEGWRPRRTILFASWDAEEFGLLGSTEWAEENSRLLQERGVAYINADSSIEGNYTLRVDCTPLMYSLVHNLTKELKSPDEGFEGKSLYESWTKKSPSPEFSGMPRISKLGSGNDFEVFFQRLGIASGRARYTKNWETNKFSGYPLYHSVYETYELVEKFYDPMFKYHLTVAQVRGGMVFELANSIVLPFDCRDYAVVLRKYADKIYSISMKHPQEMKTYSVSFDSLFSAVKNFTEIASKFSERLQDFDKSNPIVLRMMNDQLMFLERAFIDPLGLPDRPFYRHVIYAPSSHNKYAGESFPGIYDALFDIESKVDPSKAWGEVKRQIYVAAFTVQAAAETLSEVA

SMILES: O=C(O)CC[C@H](NC(=O)N[C@@H](CSCc1ccc(F)cc1)C(=O)O)C(=O)O [DCFBC]
Ki [1]: 0.44 nM

SMILES: O=C(O)CCC(NC(=O)NC(CCCCNC(=O)c1ccc(F)cc1)C(=O)O)C(=O)O (stereo not shown) [DCFBzL]
Ki [1]: 0.19 nM

Binding affinity to PSMA (in words) [2]: high binding affinity to PSMA
Ki [2]: 0.6 nM
SMILES: O=C(O)CCC(NC(=O)NC(CCCCNC(=O)CCCCCCC(=O)NC(CCCCNC(=O)CCc1cn(CCF)nn1)C(=O)O)C(=O)O)C(=O)O (stereo not shown) [YC-71]

Ki [2]: 12.9 nM
SMILES: O=C(O)CCC(NC(=O)NC(CCCCNC(=O)CCc1cn(CCF)nn1)C(=O)O)C(=O)O (stereo not shown) [YC-88, 2-[3-(1-Carboxy-5-{3-[1-(2-fluoroethyl)-1H-1,2,3-triazol-yl]propanamido}pentyl)ureido]pentanedioic Acid]
Binding affinity to PSMA (in words) [2]: high affinity for PSMA; also recorded: high binding affinity to PSMA

Binding affinity to PSMA (in words) [2]: high binding affinity to PSMA
Ki [2]: 473 nM
SMILES: O=C(O)CC[C@H](OC(=O)N[C@@H](CCCCNC(=O)CCc1cn(CCF)nn1)C(=O)O)C(=O)O [YC-XY-01, (S)-2-((((S)-1-carboxy-5-(3-(1-(2-fluoroethyl)-1H-1,2,3-triazol-4-yl)propanamido)pentyl)carbamoyl)oxy)pentanedioic acid]

log P (octanol-water partition coefficient) ([3]; 1-octanol and PBS): −3.27
AUC in kidneys [4]: 340.74 % ID/g-h
Biological half-life in kidneys [4]: 1.20 h
SMILES: O=C(O)CCC(NC(=O)NC(CCCCNC(=O)c1ccc([18F])nc1)C(=O)O)C(=O)O (stereo not shown) [[^18F]DCFPyL, 2-(3-{1-carboxy-5-[(6-[^18F]fluoropyridine-3-carbonyl)-amino]-pentyl}-ureido)-pentanedioic acid, reference compound]

logP [3]: -3.91
AUC ratio (agent/YC-88) in kidneys ([4]; mouse, in vivo): 1
Kidney absorbed dose, decrease compared to [^18F]DCFPyL ([4]; mouse, in vivo): ~5 fold
AUC in kidneys [4]: 70.7 % ID/g-h
Biological half-life in kidneys [4]: 1.52 h
SMILES: O=C(O)CC[C@H](NC(=O)N[C@@H](CCCCNC(=O)CCc1cn(CC[18F])nn1)C(=O)O)C(=O)O [[^18F]YC-88, 2-[3-(1-carboxy-5-{3-[1-(2-[^18F]fluoroethyl)-1H-1,2,3-triazol-yl]propanamido}pentyl)ureido]-pentanedioic acid]
